Assay results as given in patent US20100273814A1, “((PHENYL)IMIDAZOLYL)METHYLHETEROARYL COMPOUNDS” (priority 2007, published 2010).

Molecular target: T1, alpha2A receptor (Homo sapiens, UniProt P08913)
T1 construct: expressed in transfected cells; host or cells: NIH-3T3 cells
T1 sequence (P08913 1-465): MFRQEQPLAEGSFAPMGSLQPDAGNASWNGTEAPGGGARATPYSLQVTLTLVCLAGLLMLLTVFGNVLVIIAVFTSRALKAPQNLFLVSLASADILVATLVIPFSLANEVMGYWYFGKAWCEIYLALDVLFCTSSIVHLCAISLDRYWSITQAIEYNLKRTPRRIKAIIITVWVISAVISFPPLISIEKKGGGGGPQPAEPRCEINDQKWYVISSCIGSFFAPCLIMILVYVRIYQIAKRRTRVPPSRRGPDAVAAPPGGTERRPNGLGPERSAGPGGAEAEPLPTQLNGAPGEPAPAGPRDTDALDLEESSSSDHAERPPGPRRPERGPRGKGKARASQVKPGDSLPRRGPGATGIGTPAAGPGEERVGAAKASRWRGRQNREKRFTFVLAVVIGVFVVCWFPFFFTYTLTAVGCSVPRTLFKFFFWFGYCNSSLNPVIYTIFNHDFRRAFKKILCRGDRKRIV
Experiment: Receptor Selection and Amplification Technology (RSAT) assay, alpha2A
Assay type: cell-based
Conditions: RSAT, transfected NIH-3T3 cells; value outside brackets; read-out: Alpha 2A EC50 (potency)
Experimental: (§1) Receptor Selection and Amplification Technology (RSAT) Assay
(§2) The RSAT assay measures a receptor-mediated loss of contact inhibition that results in selective proliferation of receptor-containing cells in a mixed population of confluent cells. The increase in cell number is assessed with an appropriate transfected marker gene such as β-galactosidase, the activity of which can be easily measured in a 96-well format. Receptors that activate the G protein, Gq, elicit this response. Alpha2 receptors, which normally couple to Gi, activate the RSAT response when coexpressed with a hybrid Gq protein that has a Gi receptor recognition domain, called Gq/i5.
(§3) NIH-3T3 cells are plated at a density of 2×10^6 cells in 15 cm dishes and maintained in Dulbecco's modified Eagle's medium supplemented with 10% calf serum. One day later, cells are cotransfected by calcium phosphate precipitation with mammalian expression plasmids encoding p-SV-β-galactosidase (5-10 μg), receptor (1-2 μg) and G protein (1-2 μg). 40 μg salmon sperm DNA may also be included in the transfection mixture. Fresh media is added on the following day and 1-2 days later, cells are harvested and frozen in 50 assay aliquots. Cells are thawed and […] added to 100 aliquots of various concentrations of drugs in triplicate in 96-well dishes. Incubations continue 72-96 hr at 37° C. After washing with phosphate-buffered saline, β-galactosidase enzyme activity is determined by adding 200 μl of the chromogenic substrate (consisting of 3.5 mM o-nitrophenyl-β-D-galactopyranoside and 0.5% nonidet P-40 in phosphate buffered saline), incubating overnight at 30° C. and measuring optical density at 420 nm. The absorbance is a measure of enzyme activity, which depends on cell number and reflects a receptor-mediated cell proliferation. The efficacy or intrinsic activity is calculated as a ratio of the maximal effect of the drug to the maximal effect of a standard full agonist for each receptor subtype. Brimonidine, also called UK14304, the chemical structure of which is shown below, is used as the standard agonist for the alpha2A, alpha2B and alpha2C receptors. The EC50 is the concentration at which the drug effect is half of its maximal effect.
(§4) EC50 values are nanomolar. ND stands for “not determinable” at concentrations less than 10 micromolar. IA stands for “intrinsic activity.”

Row | Structure (SMILES) | EC50
1 | Cc1cccc(C(c2ccncc2)c2c[nH]cn2)c1C (stereo not shown) [4-((2,3-dimethylphenyl)(1H-imidazol-5-yl)methyl)pyridine] | 1.51 µM
2 | Clc1cccc(C(c2cccnc2)c2c[nH]cn2)c1Cl (stereo not shown) | 0.605 µM
3 | Fc1c(C(c2cccnc2)c2c[nH]cn2)cccc1C(F)(F)F (stereo not shown) [3-((2-fluoro-3-(trifluoromethyl)phenyl)(1H-imidazol-5-yl)methyl)pyridine] | > 10 µM
4 | Cc1cccc(C(c2cccnc2)c2c[nH]cn2)c1C (stereo not shown) [3-((2,3-dimethylphenyl)(1H-imidazol-5-yl)methyl)pyridine] | > 10 µM
5 | Fc1ccccc1C(c1ccncc1)c1c[nH]cn1 (stereo not shown) [4-((2-fluorophenyl)(1H-imidazol-5-yl)methyl)pyridine] | > 10 µM
6 | c1ccc(C(c2ccccn2)c2c[nH]cn2)cc1 (stereo not shown) [2-((phenyl)(1H-imidazol-5-yl)methyl)pyridine] | > 10 µM
7 | Cc1c(F)cccc1C(c1ccncc1)c1c[nH]cn1 (stereo not shown) [4-((3-fluoro-2-methylphenyl)(1H-imidazol-5-yl)methyl)pyridine] | > 10 µM

Same assay, conditions: RSAT; ratio of maximal effect to that of standard full agonist brimonidine (UK14304); value in brackets

Row | Structure (SMILES) | Alpha 2A intrinsic activity (efficacy)
8 | Fc1c(Cl)cccc1C(c1c[nH]cn1)c1cccs1 (stereo not shown) | 0.21
9 | Cc1cccc(C(c2ccncc2)c2c[nH]cn2)c1C (stereo not shown) [4-((2,3-dimethylphenyl)(1H-imidazol-5-yl)methyl)pyridine] | 0.32
10 | Clc1cccc(C(c2cccnc2)c2c[nH]cn2)c1Cl (stereo not shown) | 0.37
11 | Fc1c(C(c2cccnc2)c2c[nH]cn2)cccc1C(F)(F)F (stereo not shown) [3-((2-fluoro-3-(trifluoromethyl)phenyl)(1H-imidazol-5-yl)methyl)pyridine] | 0.23
12 | Cc1cccc(C(c2cccnc2)c2c[nH]cn2)c1C (stereo not shown) [3-((2,3-dimethylphenyl)(1H-imidazol-5-yl)methyl)pyridine] | 0.19
13 | Fc1ccccc1C(c1ccncc1)c1c[nH]cn1 (stereo not shown) [4-((2-fluorophenyl)(1H-imidazol-5-yl)methyl)pyridine] | 0.04
14 | c1ccc(C(c2ccccn2)c2c[nH]cn2)cc1 (stereo not shown) [2-((phenyl)(1H-imidazol-5-yl)methyl)pyridine] | 0.04
15 | Cc1c(F)cccc1C(c1ccncc1)c1c[nH]cn1 (stereo not shown) [4-((3-fluoro-2-methylphenyl)(1H-imidazol-5-yl)methyl)pyridine] | 0.03

Molecular target: T2, alpha2B receptor (Homo sapiens, UniProt P18089)
T2 construct: expressed in transfected cells; host or cells: NIH-3T3 cells
T2 sequence (P18089 1-450): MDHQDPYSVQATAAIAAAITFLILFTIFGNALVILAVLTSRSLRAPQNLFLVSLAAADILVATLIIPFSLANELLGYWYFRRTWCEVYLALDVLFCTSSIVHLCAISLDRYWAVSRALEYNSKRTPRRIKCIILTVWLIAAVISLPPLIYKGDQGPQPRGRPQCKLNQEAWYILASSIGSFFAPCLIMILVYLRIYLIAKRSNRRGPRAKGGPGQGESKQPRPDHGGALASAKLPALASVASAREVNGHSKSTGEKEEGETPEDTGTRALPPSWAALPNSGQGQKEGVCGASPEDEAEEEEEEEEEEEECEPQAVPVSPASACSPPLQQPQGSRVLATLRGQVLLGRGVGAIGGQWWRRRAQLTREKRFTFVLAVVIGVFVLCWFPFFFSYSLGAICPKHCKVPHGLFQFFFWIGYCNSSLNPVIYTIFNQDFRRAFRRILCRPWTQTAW
Experiment: Receptor Selection and Amplification Technology (RSAT) assay, alpha2B
Assay type: cell-based
Conditions: not given
Experimental: as §1, §2, §3, §4

Row | Structure (SMILES) | EC50
16 | Fc1c(Cl)cccc1C(c1c[nH]cn1)c1cccs1 (stereo not shown) | 46 nM

Same assay, conditions: RSAT, transfected NIH-3T3 cells; value outside brackets; read-out: Alpha 2B EC50 (potency)

Row | Structure (SMILES) | EC50
17 | Cc1cccc(C(c2ccncc2)c2c[nH]cn2)c1C (stereo not shown) [4-((2,3-dimethylphenyl)(1H-imidazol-5-yl)methyl)pyridine] | 4.4 nM
18 | Clc1cccc(C(c2cccnc2)c2c[nH]cn2)c1Cl (stereo not shown) | 1.62 nM
19 | Fc1c(C(c2cccnc2)c2c[nH]cn2)cccc1C(F)(F)F (stereo not shown) [3-((2-fluoro-3-(trifluoromethyl)phenyl)(1H-imidazol-5-yl)methyl)pyridine] | 5.2 nM
20 | Cc1cccc(C(c2cccnc2)c2c[nH]cn2)c1C (stereo not shown) [3-((2,3-dimethylphenyl)(1H-imidazol-5-yl)methyl)pyridine] | 0.33 nM
21 | Fc1ccccc1C(c1ccncc1)c1c[nH]cn1 (stereo not shown) [4-((2-fluorophenyl)(1H-imidazol-5-yl)methyl)pyridine] | 350 nM
22 | c1ccc(C(c2ccccn2)c2c[nH]cn2)cc1 (stereo not shown) [2-((phenyl)(1H-imidazol-5-yl)methyl)pyridine] | 469 nM
23 | Cc1c(F)cccc1C(c1ccncc1)c1c[nH]cn1 (stereo not shown) [4-((3-fluoro-2-methylphenyl)(1H-imidazol-5-yl)methyl)pyridine] | 72 nM

Same assay, conditions: RSAT; ratio of maximal effect to that of standard full agonist brimonidine (UK14304); value in brackets

Row | Structure (SMILES) | Alpha 2B intrinsic activity (efficacy)
24 | Fc1c(Cl)cccc1C(c1c[nH]cn1)c1cccs1 (stereo not shown) | 0.93
25 | Cc1cccc(C(c2ccncc2)c2c[nH]cn2)c1C (stereo not shown) [4-((2,3-dimethylphenyl)(1H-imidazol-5-yl)methyl)pyridine] | 1.07
26 | Clc1cccc(C(c2cccnc2)c2c[nH]cn2)c1Cl (stereo not shown) | 1.15
27 | Fc1c(C(c2cccnc2)c2c[nH]cn2)cccc1C(F)(F)F (stereo not shown) [3-((2-fluoro-3-(trifluoromethyl)phenyl)(1H-imidazol-5-yl)methyl)pyridine] | 1.24
28 | Cc1cccc(C(c2cccnc2)c2c[nH]cn2)c1C (stereo not shown) [3-((2,3-dimethylphenyl)(1H-imidazol-5-yl)methyl)pyridine] | 1.25
29 | Fc1ccccc1C(c1ccncc1)c1c[nH]cn1 (stereo not shown) [4-((2-fluorophenyl)(1H-imidazol-5-yl)methyl)pyridine] | 0.78
30 | c1ccc(C(c2ccccn2)c2c[nH]cn2)cc1 (stereo not shown) [2-((phenyl)(1H-imidazol-5-yl)methyl)pyridine] | 0.87
31 | Cc1c(F)cccc1C(c1ccncc1)c1c[nH]cn1 (stereo not shown) [4-((3-fluoro-2-methylphenyl)(1H-imidazol-5-yl)methyl)pyridine] | 1.17

Molecular target: T3, alpha2C receptor (Homo sapiens, UniProt P18825)
T3 construct: expressed in transfected cells; host or cells: NIH-3T3 cells
T3 sequence (P18825 1-462): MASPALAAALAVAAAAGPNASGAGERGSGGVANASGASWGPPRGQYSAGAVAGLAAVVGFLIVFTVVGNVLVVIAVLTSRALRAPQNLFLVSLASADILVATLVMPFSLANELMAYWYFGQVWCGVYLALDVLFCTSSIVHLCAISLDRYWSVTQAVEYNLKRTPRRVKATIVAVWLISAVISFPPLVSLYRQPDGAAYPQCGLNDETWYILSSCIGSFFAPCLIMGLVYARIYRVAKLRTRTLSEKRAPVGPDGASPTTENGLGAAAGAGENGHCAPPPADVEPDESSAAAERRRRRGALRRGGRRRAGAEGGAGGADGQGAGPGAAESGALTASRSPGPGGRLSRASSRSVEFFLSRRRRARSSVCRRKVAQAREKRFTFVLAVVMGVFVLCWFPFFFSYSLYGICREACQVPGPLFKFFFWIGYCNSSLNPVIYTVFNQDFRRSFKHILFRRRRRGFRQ
Experiment: Receptor Selection and Amplification Technology (RSAT) assay, alpha2C
Assay type: cell-based
Conditions: RSAT, transfected NIH-3T3 cells; value outside brackets; read-out: Alpha 2C EC50 (potency)
Experimental: as §1, §2, §3, §4

Row | Structure (SMILES) | EC50
32 | Cc1cccc(C(c2ccncc2)c2c[nH]cn2)c1C (stereo not shown) [4-((2,3-dimethylphenyl)(1H-imidazol-5-yl)methyl)pyridine] | 605 nM
33 | Clc1cccc(C(c2cccnc2)c2c[nH]cn2)c1Cl (stereo not shown) | 112 nM
34 | Fc1c(C(c2cccnc2)c2c[nH]cn2)cccc1C(F)(F)F (stereo not shown) [3-((2-fluoro-3-(trifluoromethyl)phenyl)(1H-imidazol-5-yl)methyl)pyridine] | 32 nM
35 | Cc1cccc(C(c2cccnc2)c2c[nH]cn2)c1C (stereo not shown) [3-((2,3-dimethylphenyl)(1H-imidazol-5-yl)methyl)pyridine] | 14 nM
36 | Fc1ccccc1C(c1ccncc1)c1c[nH]cn1 (stereo not shown) [4-((2-fluorophenyl)(1H-imidazol-5-yl)methyl)pyridine] | 365 nM
37 | c1ccc(C(c2ccccn2)c2c[nH]cn2)cc1 (stereo not shown) [2-((phenyl)(1H-imidazol-5-yl)methyl)pyridine] | > 10000 nM
38 | Cc1c(F)cccc1C(c1ccncc1)c1c[nH]cn1 (stereo not shown) [4-((3-fluoro-2-methylphenyl)(1H-imidazol-5-yl)methyl)pyridine] | > 10000 nM

Same assay, conditions: RSAT; ratio of maximal effect to that of standard full agonist brimonidine (UK14304); value in brackets

Row | Structure (SMILES) | Alpha 2C intrinsic activity (efficacy)
39 | Fc1c(Cl)cccc1C(c1c[nH]cn1)c1cccs1 (stereo not shown) | 0.28
40 | Cc1cccc(C(c2ccncc2)c2c[nH]cn2)c1C (stereo not shown) [4-((2,3-dimethylphenyl)(1H-imidazol-5-yl)methyl)pyridine] | 0.49
41 | Clc1cccc(C(c2cccnc2)c2c[nH]cn2)c1Cl (stereo not shown) | 0.87
42 | Fc1c(C(c2cccnc2)c2c[nH]cn2)cccc1C(F)(F)F (stereo not shown) [3-((2-fluoro-3-(trifluoromethyl)phenyl)(1H-imidazol-5-yl)methyl)pyridine] | 0.42
43 | Cc1cccc(C(c2cccnc2)c2c[nH]cn2)c1C (stereo not shown) [3-((2,3-dimethylphenyl)(1H-imidazol-5-yl)methyl)pyridine] | 0.55
44 | Fc1ccccc1C(c1ccncc1)c1c[nH]cn1 (stereo not shown) [4-((2-fluorophenyl)(1H-imidazol-5-yl)methyl)pyridine] | 0.48
45 | c1ccc(C(c2ccccn2)c2c[nH]cn2)cc1 (stereo not shown) [2-((phenyl)(1H-imidazol-5-yl)methyl)pyridine] | 0.09
46 | Cc1c(F)cccc1C(c1ccncc1)c1c[nH]cn1 (stereo not shown) [4-((3-fluoro-2-methylphenyl)(1H-imidazol-5-yl)methyl)pyridine] | 0.27
